According to PubChem BioAssay (NCI):
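Following 48 hours of exposure in 96-well plates, responses at five concentrations were used to interpolate endpoints linearly. The concentration for full growth arrest is given as TGI.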

Key:
Assay in all cases: DTP human tumour cell line panel, 48 h
SNB-78 CNS = system: SNB-78 CNS
OVCAR-3 ovarian = system: OVCAR-3 ovarian
M19-MEL melanoma = system: M19-MEL melanoma
UO-31 renal = system: UO-31 renal
NCI-H23 lung = system: NCI-H23 lung
SK-OV-3 ovarian = system: SK-OV-3 ovarian
SK-MEL-2 melanoma = system: SK-MEL-2 melanoma
IGROV1 ovarian = system: IGROV1 ovarian
SR leukemia = system: SR leukemia
A549 NSCLC = system: A549 NSCLC
HCC-2998 colon = system: HCC-2998 colon
KM20L2 colon = system: KM20L2 colon
A498 renal = system: A498 renal
SNB-75 CNS = system: SNB-75 CNS
HOP-92 NSCLC = system: HOP-92 NSCLC
SK-MEL-5 melanoma = system: SK-MEL-5 melanoma
DLD-1 colon = system: DLD-1 colon
LOX IMVI melanoma = system: LOX IMVI melanoma
K-562 leukemia = system: K-562 leukemia
COLO 205 colon = system: COLO 205 colon
DMS 114 small cell lung = system: DMS 114 small cell lung
U251 CNS = system: U251 CNS
UACC-62 melanoma = system: UACC-62 melanoma
OVCAR-4 ovarian = system: OVCAR-4 ovarian
EKVX NSCLC = system: EKVX NSCLC
HL-60(TB) leukemia = system: HL-60(TB) leukemia
NCI-H522 lung = system: NCI-H522 lung
786-0 renal = system: 786-0 renal
MALME-3M melanoma = system: MALME-3M melanoma
TK-10 renal = system: TK-10 renal
KM12 colon = system: KM12 colon
CCRF-CEM leukemia = system: CCRF-CEM leukemia
NCI-H460 lung = system: NCI-H460 lung
RPMI-8226 leukemia = system: RPMI-8226 leukemia
SF-539 CNS = system: SF-539 CNS
SW-620 colon = system: SW-620 colon
CAKI-1 renal = system: CAKI-1 renal
OVCAR-8 ovarian = system: OVCAR-8 ovarian
M14 melanoma = system: M14 melanoma
HCT-116 colon = system: HCT-116 colon
NCI-H226 lung = system: NCI-H226 lung
SK-MEL-28 melanoma = system: SK-MEL-28 melanoma
UACC-257 melanoma = system: UACC-257 melanoma
HCT-15 colon = system: HCT-15 colon
SF-295 CNS = system: SF-295 CNS
RXF-631 renal = system: RXF-631 renal
SNB-19 CNS = system: SNB-19 CNS
XF 498 CNS = system: XF 498 CNS
MOLT-4 leukemia = system: MOLT-4 leukemia
ACHN renal = system: ACHN renal
OVCAR-5 ovarian = system: OVCAR-5 ovarian
SF-268 CNS = system: SF-268 CNS
LXFL 529 NSCLC = system: LXFL 529 NSCLC
HT29 colon = system: HT29 colon
RXF 393 renal = system: RXF 393 renal
SN12C renal = system: SN12C renal
DMS 273 small cell lung = system: DMS 273 small cell lung
HOP-62 NSCLC = system: HOP-62 NSCLC
HOP-18 NSCLC = system: HOP-18 NSCLC

## C[C@]12C=CC(=O)C=C1CC[C@H]1[C@@H]3C[C@@H](O)[C@](O)(C(=O)CO)[C@@]3(C)C[C@H](O)[C@@]12F
SNB-78 CNS
  TGI: > 100 µM
OVCAR-3 ovarian
  TGI: > 100 µM
M19-MEL melanoma
  TGI: > 100 µM
UO-31 renal
  TGI: > 100 µM
NCI-H23 lung
  TGI: > 100 µM
SK-OV-3 ovarian
  TGI: > 100 µM
SK-MEL-2 melanoma
  TGI: > 100 µM
IGROV1 ovarian
  TGI: > 100 µM
SR leukemia
  TGI: > 100 µM
A549 NSCLC
  TGI: > 100 µM
HCC-2998 colon
  TGI: > 100 µM
KM20L2 colon
  TGI: > 100 µM
A498 renal
  TGI: > 100 µM
SNB-75 CNS
  TGI: > 100 µM
HOP-92 NSCLC
  TGI: > 100 µM
SK-MEL-5 melanoma
  TGI: > 100 µM
DLD-1 colon
  TGI: > 100 µM
LOX IMVI melanoma
  TGI: > 100 µM
K-562 leukemia
  TGI: > 100 µM
COLO 205 colon
  TGI: > 100 µM
DMS 114 small cell lung
  TGI: > 100 µM
U251 CNS
  TGI: > 100 µM
UACC-62 melanoma
  TGI: > 100 µM
OVCAR-4 ovarian
  TGI: > 100 µM
EKVX NSCLC
  TGI: > 100 µM
HL-60(TB) leukemia
  TGI: > 100 µM
NCI-H522 lung
  TGI: > 100 µM
786-0 renal
  TGI: > 100 µM
MALME-3M melanoma
  TGI: > 100 µM
TK-10 renal
  TGI: > 100 µM
KM12 colon
  TGI: > 100 µM
CCRF-CEM leukemia
  TGI: > 100 µM
NCI-H460 lung
  TGI: > 100 µM
RPMI-8226 leukemia
  TGI: > 100 µM
SF-539 CNS
  TGI: > 100 µM
SW-620 colon
  TGI: > 100 µM
CAKI-1 renal
  TGI: > 100 µM
OVCAR-8 ovarian
  TGI: > 100 µM
M14 melanoma
  TGI: > 100 µM
HCT-116 colon
  TGI: > 100 µM
NCI-H226 lung
  TGI: > 100 µM
SK-MEL-28 melanoma
  TGI: > 100 µM
UACC-257 melanoma
  TGI: > 100 µM
HCT-15 colon
  TGI: > 100 µM
SF-295 CNS
  TGI: > 100 µM
RXF-631 renal
  TGI: > 100 µM
SNB-19 CNS
  TGI: > 100 µM
XF 498 CNS
  TGI: > 100 µM
MOLT-4 leukemia
  TGI: > 100 µM
ACHN renal
  TGI: > 100 µM
OVCAR-5 ovarian
  TGI: > 100 µM
SF-268 CNS
  TGI: > 100 µM
LXFL 529 NSCLC
  TGI: > 100 µM
HT29 colon
  TGI: > 100 µM
RXF 393 renal
  TGI: > 100 µM
SN12C renal
  TGI: > 100 µM
DMS 273 small cell lung
  TGI: > 100 µM
HOP-62 NSCLC
  TGI: > 100 µM

## O=C1OC(c2ccccc2)=N/C1=C/C=C/c1ccco1
SNB-78 CNS
  TGI: > 100 µM
OVCAR-3 ovarian
  TGI: > 100 µM
M19-MEL melanoma
  TGI: > 100 µM
UO-31 renal
  TGI: > 100 µM
NCI-H23 lung
  TGI: > 100 µM
SK-OV-3 ovarian
  TGI: > 100 µM
SK-MEL-2 melanoma
  TGI: > 100 µM
IGROV1 ovarian
  TGI: > 100 µM
SR leukemia
  TGI: > 100 µM
A549 NSCLC
  TGI: > 100 µM
HCC-2998 colon
  TGI: > 100 µM
KM20L2 colon
  TGI: > 100 µM
HOP-92 NSCLC
  TGI: > 100 µM
SK-MEL-5 melanoma
  TGI: > 100 µM
DLD-1 colon
  TGI: > 100 µM
K-562 leukemia
  TGI: > 100 µM
COLO 205 colon
  TGI: > 100 µM
DMS 114 small cell lung
  TGI: > 100 µM
U251 CNS
  TGI: > 100 µM
UACC-62 melanoma
  TGI: > 100 µM
OVCAR-4 ovarian
  TGI: > 100 µM
EKVX NSCLC
  TGI: > 100 µM
NCI-H522 lung
  TGI: > 100 µM
786-0 renal
  TGI: > 100 µM
MALME-3M melanoma
  TGI: > 100 µM
TK-10 renal
  TGI: > 100 µM
KM12 colon
  TGI: > 100 µM
CCRF-CEM leukemia
  TGI: > 100 µM
SF-539 CNS
  TGI: > 100 µM
SW-620 colon
  TGI: > 100 µM
CAKI-1 renal
  TGI: > 100 µM
OVCAR-8 ovarian
  TGI: > 100 µM
M14 melanoma
  TGI: > 100 µM
SK-MEL-28 melanoma
  TGI: > 100 µM
HCT-15 colon
  TGI: > 100 µM
SF-295 CNS
  TGI: > 100 µM
RXF-631 renal
  TGI: > 100 µM
SNB-19 CNS
  TGI: > 100 µM
XF 498 CNS
  TGI: > 100 µM
MOLT-4 leukemia
  TGI: > 100 µM
ACHN renal
  TGI: > 100 µM
OVCAR-5 ovarian
  TGI: > 100 µM
SF-268 CNS
  TGI: > 100 µM
LXFL 529 NSCLC
  TGI: > 100 µM
HT29 colon
  TGI: > 100 µM
RXF 393 renal
  TGI: > 100 µM
SN12C renal
  TGI: > 100 µM

## COC(=O)c1cc2c3ccccc3n(C(C)=O)c2cn1
SNB-78 CNS
  TGI: > 100 µM
OVCAR-3 ovarian
  TGI: > 100 µM
M19-MEL melanoma
  TGI: > 100 µM
UO-31 renal
  TGI: > 100 µM
NCI-H23 lung
  TGI: > 100 µM
SK-OV-3 ovarian
  TGI: > 100 µM
SK-MEL-2 melanoma
  TGI: > 100 µM
IGROV1 ovarian
  TGI: > 100 µM
SR leukemia
  TGI: > 100 µM
A549 NSCLC
  TGI: > 100 µM
HCC-2998 colon
  TGI: > 100 µM
KM20L2 colon
  TGI: > 100 µM
SNB-75 CNS
  TGI: > 100 µM
HOP-92 NSCLC
  TGI: > 100 µM
SK-MEL-5 melanoma
  TGI: > 100 µM
DLD-1 colon
  TGI: > 100 µM
LOX IMVI melanoma
  TGI: > 100 µM
K-562 leukemia
  TGI: > 100 µM
HOP-18 NSCLC
  TGI: > 100 µM
COLO 205 colon
  TGI: > 100 µM
DMS 114 small cell lung
  TGI: > 100 µM
U251 CNS
  TGI: > 100 µM
UACC-62 melanoma
  TGI: > 100 µM
OVCAR-4 ovarian
  TGI: > 100 µM
EKVX NSCLC
  TGI: > 100 µM
HL-60(TB) leukemia
  TGI: > 100 µM
NCI-H522 lung
  TGI: > 100 µM
786-0 renal
  TGI: > 100 µM
MALME-3M melanoma
  TGI: > 100 µM
TK-10 renal
  TGI: > 100 µM
KM12 colon
  TGI: > 100 µM
CCRF-CEM leukemia
  TGI: > 100 µM
NCI-H460 lung
  TGI: > 100 µM
RPMI-8226 leukemia
  TGI: > 100 µM
SF-539 CNS
  TGI: > 100 µM
SW-620 colon
  TGI: > 100 µM
CAKI-1 renal
  TGI: 48.9 µM
OVCAR-8 ovarian
  TGI: > 100 µM
M14 melanoma
  TGI: > 100 µM
HCT-116 colon
  TGI: > 100 µM
NCI-H226 lung
  TGI: > 100 µM
SK-MEL-28 melanoma
  TGI: > 100 µM
UACC-257 melanoma
  TGI: > 100 µM
HCT-15 colon
  TGI: > 100 µM
SF-295 CNS
  TGI: > 100 µM
RXF-631 renal
  TGI: > 100 µM
SNB-19 CNS
  TGI: > 100 µM
XF 498 CNS
  TGI: 89.9 µM
MOLT-4 leukemia
  TGI: > 100 µM
ACHN renal
  TGI: > 100 µM
OVCAR-5 ovarian
  TGI: > 100 µM
LXFL 529 NSCLC
  TGI: > 100 µM
HT29 colon
  TGI: > 100 µM
RXF 393 renal
  TGI: 87.1 µM
SN12C renal
  TGI: > 100 µM
DMS 273 small cell lung
  TGI: > 100 µM
HOP-62 NSCLC
  TGI: > 100 µM

## Cc1ccc(NC(=O)c2c(C)nc(=O)n3c2N(/N=C/c2ccc(Cl)cc2)CC3)cc1
SNB-78 CNS
  TGI: 40.5 µM
M19-MEL melanoma
  TGI: 37 µM
UO-31 renal
  TGI: 24 µM
NCI-H23 lung
  TGI: 29.2 µM
SK-OV-3 ovarian
  TGI: 39.7 µM
SK-MEL-2 melanoma
  TGI: 34.7 µM
IGROV1 ovarian
  TGI: 36.2 µM
SR leukemia
  TGI: > 100 µM
HCC-2998 colon
  TGI: 32.3 µM
A498 renal
  TGI: 33.1 µM
SNB-75 CNS
  TGI: 34.1 µM
HOP-92 NSCLC
  TGI: 36.6 µM
DLD-1 colon
  TGI: 30.7 µM
K-562 leukemia
  TGI: > 100 µM
COLO 205 colon
  TGI: 54.8 µM
DMS 114 small cell lung
  TGI: 55.1 µM
UACC-62 melanoma
  TGI: 28.2 µM
OVCAR-4 ovarian
  TGI: 32 µM
HL-60(TB) leukemia
  TGI: 48.7 µM
NCI-H522 lung
  TGI: 24 µM
786-0 renal
  TGI: 33.8 µM
MALME-3M melanoma
  TGI: 40.1 µM
CCRF-CEM leukemia
  TGI: > 100 µM
SF-539 CNS
  TGI: 25 µM
CAKI-1 renal
  TGI: 32.1 µM
M14 melanoma
  TGI: 31.5 µM
HCT-116 colon
  TGI: 26.4 µM
NCI-H226 lung
  TGI: 33.3 µM
SK-MEL-28 melanoma
  TGI: 31.2 µM
RXF-631 renal
  TGI: 30.6 µM
XF 498 CNS
  TGI: 34.1 µM
MOLT-4 leukemia
  TGI: 82 µM
ACHN renal
  TGI: 33.8 µM
SF-268 CNS
  TGI: 29.2 µM
LXFL 529 NSCLC
  TGI: 31.6 µM
SN12C renal
  TGI: 30.6 µM
DMS 273 small cell lung
  TGI: 43.9 µM
HOP-62 NSCLC
  TGI: 33.1 µM
